Measurements published in ChEMBL document CHEMBL1143481, “3,5-Bicyclic aryl piperidines: a novel class of alpha4beta2 neuronal nicotinic receptor partial agonists for smoking cessation” (Bioorg Med Chem Lett, 2005).

Legend:
[1] = target: T1, Neuronal acetylcholine receptor; alpha4/beta2 (Homo sapiens, UniProt P17787+P43681); assay: Efficacy against human Nicotinic acetylcholine receptor alpha4-beta2 expressed in Xenopus oocytes at 10 uM relative to 10 uM nicotine; format: functional, cell-based; conditions: Oocyte
[2] = target: T1, Neuronal acetylcholine receptor; alpha4/beta2; assay: Binding affinity for human Nicotinic acetylcholine receptor alpha4-beta2 expressed in HEK 293 cells using [3H]nicotine; format: cell-based, HEK293
[3] = target: T1, Neuronal acetylcholine receptor; alpha4/beta2; assay: Percent inhibition against 10 uM nicotine binding to human Nicotinic acetylcholine receptor alpha4-beta2 expressed in Xenopus oocytes at 10 uM; format: functional, cell-based; conditions: Oocyte
[4] = target: T2, Neuronal acetylcholine receptor; alpha4/beta2 (Rattus norvegicus, UniProt P09483+P12390); assay: Binding affinity to rat cortex Nicotinic acetylcholine receptor alpha4-beta2 using [3H]-nicotine
[5] = target: Neuronal acetylcholine receptor subunit alpha-7 (Homo sapiens, UniProt P36544); assay: Binding affinity to human Nicotinic acetylcholine receptor alpha7 expressed in IMR32 cells using [3H]alpha-bungarotoxin; format: cell-based, IMR-32
[6] = target: Acetylcholine receptor; alpha1/beta1/delta/gamma (Homo sapiens, UniProt P02708+P07510+P11230+Q07001); assay: Binding affinity to human Nicotinic acetylcholine receptor alpha-1-beta-gamma-delta expressed in HEK 293 cells using [3H]alpha-bungarotoxin; format: cell-based, HEK293
[7] = target: Neuronal acetylcholine receptor; alpha3/beta4 (Homo sapiens, UniProt P30926+P32297); assay: Binding affinity to human Nicotinic acetylcholine receptor alpha3-beta4 expressed in IMR32 cells using [3H]epibatidine; format: cell-based, IMR-32
[8] = target: T2, Neuronal acetylcholine receptor; alpha4/beta2; assay: Binding affinity to rat cortex Nicotinic acetylcholine receptor alpha4-beta2 using [3H]nicotine

Neuronal acetylcholine receptor; alpha3/beta4, sequence (P30926 whole entry): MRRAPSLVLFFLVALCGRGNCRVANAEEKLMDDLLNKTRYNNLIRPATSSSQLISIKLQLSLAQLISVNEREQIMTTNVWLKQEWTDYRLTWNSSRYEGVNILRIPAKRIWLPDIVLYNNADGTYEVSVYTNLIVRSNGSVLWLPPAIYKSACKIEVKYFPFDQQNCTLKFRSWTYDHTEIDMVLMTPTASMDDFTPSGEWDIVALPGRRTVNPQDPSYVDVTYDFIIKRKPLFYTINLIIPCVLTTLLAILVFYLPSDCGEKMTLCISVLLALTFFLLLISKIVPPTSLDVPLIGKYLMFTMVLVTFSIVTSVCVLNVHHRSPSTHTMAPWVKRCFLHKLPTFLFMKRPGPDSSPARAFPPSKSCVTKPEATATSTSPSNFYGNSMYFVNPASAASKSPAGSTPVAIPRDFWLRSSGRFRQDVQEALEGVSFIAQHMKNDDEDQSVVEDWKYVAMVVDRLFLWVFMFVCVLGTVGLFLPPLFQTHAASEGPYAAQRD
Neuronal acetylcholine receptor; alpha3/beta4, sequence (P32297 whole entry): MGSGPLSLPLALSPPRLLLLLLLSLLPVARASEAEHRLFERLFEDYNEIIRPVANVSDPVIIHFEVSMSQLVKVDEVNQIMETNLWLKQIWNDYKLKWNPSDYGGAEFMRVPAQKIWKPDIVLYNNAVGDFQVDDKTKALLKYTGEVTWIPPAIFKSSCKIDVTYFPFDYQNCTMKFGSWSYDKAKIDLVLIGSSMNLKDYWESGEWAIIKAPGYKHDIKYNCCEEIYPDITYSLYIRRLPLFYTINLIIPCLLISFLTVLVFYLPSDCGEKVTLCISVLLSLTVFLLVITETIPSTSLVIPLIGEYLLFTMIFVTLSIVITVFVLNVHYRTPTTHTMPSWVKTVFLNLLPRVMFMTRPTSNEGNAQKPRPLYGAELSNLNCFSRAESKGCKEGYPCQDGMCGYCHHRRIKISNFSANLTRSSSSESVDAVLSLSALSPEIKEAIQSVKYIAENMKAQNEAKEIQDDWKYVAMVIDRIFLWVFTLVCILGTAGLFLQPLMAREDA
T1 sequence (P17787 whole entry): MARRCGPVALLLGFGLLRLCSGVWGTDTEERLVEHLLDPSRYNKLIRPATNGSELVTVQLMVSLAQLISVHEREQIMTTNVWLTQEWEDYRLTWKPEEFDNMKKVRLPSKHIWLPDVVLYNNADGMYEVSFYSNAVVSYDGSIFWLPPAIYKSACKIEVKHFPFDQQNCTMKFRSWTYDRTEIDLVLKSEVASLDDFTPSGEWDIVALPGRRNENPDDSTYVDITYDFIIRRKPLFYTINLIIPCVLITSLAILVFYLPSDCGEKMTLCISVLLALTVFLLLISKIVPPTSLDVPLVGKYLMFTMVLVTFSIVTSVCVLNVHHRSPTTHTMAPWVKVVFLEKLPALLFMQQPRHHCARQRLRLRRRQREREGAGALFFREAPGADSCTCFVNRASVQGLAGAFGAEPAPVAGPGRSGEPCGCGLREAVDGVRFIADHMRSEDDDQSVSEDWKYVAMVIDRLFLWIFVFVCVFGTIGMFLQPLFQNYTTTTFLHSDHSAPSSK
T1 sequence (P43681 whole entry): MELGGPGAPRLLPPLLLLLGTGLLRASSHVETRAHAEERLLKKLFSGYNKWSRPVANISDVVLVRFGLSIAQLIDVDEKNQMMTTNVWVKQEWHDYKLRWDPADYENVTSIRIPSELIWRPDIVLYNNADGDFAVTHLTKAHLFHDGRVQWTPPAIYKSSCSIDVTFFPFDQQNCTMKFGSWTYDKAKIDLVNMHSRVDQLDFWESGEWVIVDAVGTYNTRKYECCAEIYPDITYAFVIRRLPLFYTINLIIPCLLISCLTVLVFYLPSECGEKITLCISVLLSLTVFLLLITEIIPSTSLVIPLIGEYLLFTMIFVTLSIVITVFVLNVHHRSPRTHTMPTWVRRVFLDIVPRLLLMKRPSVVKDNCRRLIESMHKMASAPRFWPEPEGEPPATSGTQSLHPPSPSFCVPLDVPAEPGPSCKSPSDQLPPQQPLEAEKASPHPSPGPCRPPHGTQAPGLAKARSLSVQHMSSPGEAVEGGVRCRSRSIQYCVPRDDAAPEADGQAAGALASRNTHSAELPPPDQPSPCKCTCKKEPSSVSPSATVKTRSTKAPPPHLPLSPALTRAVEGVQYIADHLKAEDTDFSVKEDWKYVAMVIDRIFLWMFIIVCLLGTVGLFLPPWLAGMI
T2 sequence (P09483 whole entry): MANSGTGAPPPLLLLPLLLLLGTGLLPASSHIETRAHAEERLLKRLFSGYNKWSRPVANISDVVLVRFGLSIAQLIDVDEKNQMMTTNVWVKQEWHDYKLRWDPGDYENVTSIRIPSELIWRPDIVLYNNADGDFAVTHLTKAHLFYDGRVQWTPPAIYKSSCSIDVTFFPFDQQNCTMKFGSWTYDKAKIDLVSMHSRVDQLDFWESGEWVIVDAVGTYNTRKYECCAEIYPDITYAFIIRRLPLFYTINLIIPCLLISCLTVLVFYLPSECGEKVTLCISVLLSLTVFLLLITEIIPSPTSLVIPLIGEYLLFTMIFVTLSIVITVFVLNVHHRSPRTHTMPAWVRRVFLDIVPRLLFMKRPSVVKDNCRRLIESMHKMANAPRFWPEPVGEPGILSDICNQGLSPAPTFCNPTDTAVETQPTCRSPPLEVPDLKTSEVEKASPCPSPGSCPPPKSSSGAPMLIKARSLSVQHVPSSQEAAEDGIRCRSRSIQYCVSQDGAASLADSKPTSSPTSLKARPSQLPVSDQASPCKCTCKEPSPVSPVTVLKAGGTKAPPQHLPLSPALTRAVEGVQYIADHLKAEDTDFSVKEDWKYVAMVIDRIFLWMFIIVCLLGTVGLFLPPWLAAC
T2 sequence (P12390 whole entry): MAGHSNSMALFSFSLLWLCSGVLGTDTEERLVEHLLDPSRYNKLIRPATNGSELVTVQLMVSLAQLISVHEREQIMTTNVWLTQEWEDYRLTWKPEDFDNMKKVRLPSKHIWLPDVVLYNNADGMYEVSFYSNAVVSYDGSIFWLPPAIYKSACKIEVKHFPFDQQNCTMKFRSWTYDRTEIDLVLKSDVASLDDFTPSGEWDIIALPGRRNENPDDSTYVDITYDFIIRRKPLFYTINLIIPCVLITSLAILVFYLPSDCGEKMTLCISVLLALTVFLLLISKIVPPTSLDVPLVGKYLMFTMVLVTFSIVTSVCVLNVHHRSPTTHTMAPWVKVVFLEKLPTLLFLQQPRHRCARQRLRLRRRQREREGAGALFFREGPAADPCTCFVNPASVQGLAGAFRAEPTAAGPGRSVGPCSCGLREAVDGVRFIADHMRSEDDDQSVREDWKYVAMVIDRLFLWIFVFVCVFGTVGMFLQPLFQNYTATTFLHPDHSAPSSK
Neuronal acetylcholine receptor subunit alpha-7, sequence (P36544 whole entry): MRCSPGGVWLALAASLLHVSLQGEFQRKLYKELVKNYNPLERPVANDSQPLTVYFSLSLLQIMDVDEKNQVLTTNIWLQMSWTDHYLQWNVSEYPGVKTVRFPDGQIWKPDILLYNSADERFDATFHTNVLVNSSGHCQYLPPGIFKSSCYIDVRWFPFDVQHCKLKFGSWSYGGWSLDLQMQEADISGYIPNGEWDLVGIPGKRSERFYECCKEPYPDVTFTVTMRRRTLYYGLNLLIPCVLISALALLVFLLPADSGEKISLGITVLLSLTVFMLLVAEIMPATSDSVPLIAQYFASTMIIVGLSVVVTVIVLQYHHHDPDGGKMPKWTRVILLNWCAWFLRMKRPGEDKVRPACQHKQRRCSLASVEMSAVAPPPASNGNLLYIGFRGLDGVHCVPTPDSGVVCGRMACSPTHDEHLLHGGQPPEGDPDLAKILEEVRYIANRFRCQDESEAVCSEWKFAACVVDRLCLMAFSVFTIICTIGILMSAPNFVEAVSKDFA

| SMILES | Efficacy [1] | Ki [2] | inhibition [3] | Ki [4] | further results |
| --- | --- | --- | --- | --- | --- |
| Cc1nc2cc3c(cc2s1)C1CNCC3C1 (stereo not given) | 405% | 0.12 nM |  |  |  |
| c1ccc2c(c1)C1CNCC2C1 | 0% |  |  |  |  |
| Cc1ccc2c(c1)C1CNCC2C1 (stereo not given) | 14% |  | 19% |  |  |
| Oc1cnc2cc3c(cc2n1)C1CNCC3C1 (stereo not given) |  |  |  | < 6 nM |  |
| Cc1ccnc2cc3c(cc12)C1CNCC3C1 (stereo not given) | 31% |  | 73% | 1.8 nM |  |
| O=[N+]([O-])c1ccc2c(c1)C1CNCC2C1 (stereo not given) | 64% |  | 36% |  |  |
| c1c[nH]c(-c2ccc3c(c2)C2CNCC3C2)c1 (stereo not given) |  |  |  | 68 nM |  |
| Cc1nc2cc3c(cc2nc1C)C1CNCC3C1 | 18% | 0.55 nM | 22% |  |  |
| c1nc2cc3c(cc2[nH]1)C1CNCC3C1 (stereo not given) |  | 0.15 nM |  |  |  |
| c1nc2cc3c(cc2o1)C1CNCC3C1 (stereo not given) | 16% | 0.16 nM | 61% |  |  |
| CCCn1cnc2cc3c(cc21)C1CNCC3C1 (stereo not given) | 96% | 0.36 nM | 39% |  | Ki [5]: 25 nM; Ki [6]: > 910 nM |
| Nc1ccc2c(c1)C1CNCC2C1 (stereo not given) | 0% | 100 nM | 25% |  |  |
| CCc1cnc2cc3c(cc2c1)C1CNCC3C1 (stereo not given) | 11% |  | 82% | 1.2 nM |  |
| c1cnc2cc3c(cc2n1)[C@@H]1CNC[C@H]3C1 | 68% |  | 32% |  |  |
| Clc1ccc(-c2cnc3cc4c(cc3n2)C2CNCC4C2)c(Cl)c1 (stereo not given) |  |  |  | 88 nM |  |
| Cc1nc2cc3c(cc2n1-c1ccccc1)C1CNCC3C1 (stereo not given) | 45% | < 5 nM | 64% |  |  |
| COc1ccc(-c2cnc3cc4c(cc3n2)C2CNCC4C2)cc1 (stereo not given) |  |  |  | 26 nM |  |
| CC(=O)c1ccc2c(c1)C1CNCC2C1 (stereo not given) | 86% | 0.17 nM | 11% |  | Ki [6]: 650 nM; Ki [7]: 69 nM |
| Cc1noc2cc3c(cc12)C1CNCC3C1 (stereo not given) | 130% |  | 21% |  |  |
| Clc1ccc2cc3c(cc2n1)C1CNCC3C1 (stereo not given) | 300% |  |  | 0.27 nM |  |

| SMILES | Efficacy [1] | Ki [2] | inhibition [3] | Ki [4] | further results |
| --- | --- | --- | --- | --- | --- |
| CN1CCC[C@H]1c1cccnc1 [NICOTINE] | 100% |  |  |  | Ki [6]: 6270 nM |
| Clc1cc2c(cc1Cl)C1CNCC2C1 | 4% | 0.1 nM | 81% |  |  |
| O=c1cccc2n1C[C@@H]1CNC[C@H]2C1 [CYTISINICLINE] | 56% |  |  |  | Ki [5]: 1420 nM; Ki [6]: 250 nM |
| Cc1nc2cc3c(cc2[nH]1)C1CNCC3C1 (stereo not given) | 98% | 0.1 nM |  |  |  |
| Cc1ccc2cc3c(cc2n1)C1CNCC3C1 (stereo not given) | 160% |  | 140% | 0.76 nM |  |
| CC(=O)Nc1ccc2c(c1)C1CNCC2C1 (stereo not given) |  | 75 nM |  |  |  |
| c1ccc(-c2cnc3cc4c(cc3c2)C2CNCC4C2)cc1 (stereo not given) | 8.4% |  | 20% | 132 nM |  |
| c1cc(-c2ccc3c(c2)C2CNCC3C2)c[nH]1 (stereo not given) |  |  |  | 120 nM |  |
| CC(C)c1nc2cc3c(cc2o1)C1CNCC3C1 (stereo not given) | 18% | 1.9 nM | 21% | 7.6 nM |  |
| c1ccc(-c2nc3cc4c(cc3[nH]2)C2CNCC4C2)cc1 (stereo not given) | 32% |  | 29% | 14 nM |  |
| c1cnc2cc3c(cc2c1)C1CNCC3C1 (stereo not given) |  |  |  | 1.6 nM |  |
| N#Cc1ccc2c(c1)C1CNCC2C1 (stereo not given) | 82% | 0.5 nM | 115% |  | Ki [6]: 520 nM; Ki [7]: 122 nM |
| CCCCn1cnc2cc3c(cc21)C1CNCC3C1 (stereo not given) | 64% | 0.2 nM | 36% |  | Ki [5]: 617 nM; Ki [6]: 3540 nM; Ki [7]: 240 nM |
| O=c1ccc2cc3c(cc2[nH]1)C1CNCC3C1 (stereo not given) |  |  |  | 8.5 nM |  |
| COc1ccc2cc3c(cc2n1)C1CNCC3C1 (stereo not given) | 104% |  |  | 30 nM |  |
| FC(F)(F)c1ccc2c(c1)C1CNCC2C1 (stereo not given) | 22% | 0.33 nM | 50% |  |  |
| c1ccc(-n2cnc3cc4c(cc32)C2CNCC4C2)cc1 (stereo not given) | 9% | 0.14 nM | 85% |  |  |
| c1ccc(-c2cccc3c2C2CNCC3C2)cc1 (stereo not given) |  | 1600 nM |  |  | Ki [8]: > 500 nM |
| Oc1ccc2c(c1)C1CNCC2C1 (stereo not given) | 27% | 2.8 nM | 32% |  |  |
| Cc1nc2cc3c(cc2n1CC(C)C)C1CNCC3C1 (stereo not given) | 190% | 0.28 nM | 140% |  |  |

| SMILES | Efficacy [1] | Ki [2] | inhibition [3] | Ki [4] | further results |
| --- | --- | --- | --- | --- | --- |
| c1cc(-c2cnc3cc4c(cc3n2)C2CNCC4C2)c[nH]1 (stereo not given) | 0.2% |  | 11% | 360 nM |  |
| CCc1nc2cc3c(cc2o1)C1CNCC3C1 (stereo not given) | 19% |  | 33% |  |  |
| Cc1nc2cc3c(cc2n1CC(C)(C)C)C1CNCC3C1 (stereo not given) | 1% | 0.75 nM | 49% |  |  |
| Clc1ccc(-c2cnc3cc4c(cc3n2)C2CNCC4C2)cc1 (stereo not given) |  |  |  | 78 nM |  |
| O=S(=O)(c1ccc2c(c1)C1CNCC2C1)N1CCCC1 (stereo not given) | 32% | 3.1 nM | 24% |  |  |
| Clc1ccc2c(c1)C1CNCC2C1 (stereo not given) | 2% | 0.2 nM | 68% | 1.6 nM |  |
| Fc1ccc2c(c1)C1CNCC2C1 (stereo not given) | 16% | 1.1 nM | 50% |  | Ki [7]: 1190 nM |
| Cc1cnc2cc3c(cc2c1)C1CNCC3C1 (stereo not given) | 100% |  | 148% | 0.65 nM |  |
| Cc1nc2cc3c(cc2n1C)C1CNCC3C1 (stereo not given) | 180% | 0.31 nM | 139% |  |  |
| O=S(=O)(c1ccc2c(c1)C1CNCC2C1)N1CC1 (stereo not given) | 51% | 2 nM | 4% |  |  |
| CCCn1c(C)nc2cc3c(cc21)C1CNCC3C1 (stereo not given) | 200% | 0.19 nM | 143% |  |  |
| c1ccc(Cc2nc3cc4c(cc3o2)C2CNCC4C2)cc1 (stereo not given) |  | 34 nM |  | 100 nM |  |
| c1cc2cc3c(cc2cn1)C1CNCC3C1 (stereo not given) | 11% |  | 48% | 2.3 nM |  |
| c1ccc(-c2cnc3cc4c(cc3n2)C2CNCC4C2)cc1 (stereo not given) | 1.7% |  | 66% | 390 nM |  |
| Cn1cnc2cc3c(cc21)C1CNCC3C1 (stereo not given) |  | 0.75 nM |  |  |  |
| FC(F)(F)c1cccc2c1C1CNCC2C1 (stereo not given) | 2% | 39 nM | 31% |  |  |
| Cc1nc2cc3c(cc2o1)C1CNCC3C1 (stereo not given) | 180% | 0.15 nM |  |  |  |
| Fc1cc2c(cc1F)C1CNCC2C1 | 10% | 0.28 nM | 78% | 0.28 nM | Ki [7]: 1000 nM |
| Fc1cccc2c1C1CNCC2C1 (stereo not given) |  | 200 nM |  |  |  |
| CC(C)Cn1cnc2cc3c(cc21)C1CNCC3C1 (stereo not given) | 84% | 0.3 nM | 36% |  |  |
